Measurements as given in ChEMBL document CHEMBL1201862, “PubChem BioAssay data set” (2004).
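How tested: cells in 96-well plates exposed to compound for 48 hours at five concentrations. Abbreviation: GI50, concentration required for 50% inhibition of growth.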 Active and inactive are the calls of the source. Cut-off read from the data, not from the text of the source: active = GI50 up to about 1.1 µM and inactive = higher.

Key:
Experiment in all cases: NCI-60 cell line screen, 48 h
SR = system: SR
SF-268 = system: SF-268
SF-539 = system: SF-539
CCRF-CEM = system: CCRF-CEM
M14 = system: M14
786-0 = system: 786-0
RPMI-8226 = system: RPMI-8226
T47D = system: T47D
PC-3 = system: PC-3
HCT-15 = system: HCT-15
NCI-H226 = system: NCI-H226
KM12 = system: KM12
SNB-75 = system: SNB-75
IGROV-1 = system: IGROV-1
SK-MEL-5 = system: SK-MEL-5
HCT-116 = system: HCT-116
TK-10 = system: TK-10
SK-MEL-28 = system: SK-MEL-28
NCI-H23 = system: NCI-H23
BT-549 = system: BT-549

Compound | GI50 (SR) | GI50 (SF-268) | GI50 (SF-539) | GI50 (CCRF-CEM) | GI50 (M14) | GI50 (786-0) | GI50 (RPMI-8226) | GI50 (T47D) | GI50 (PC-3) | GI50 (HCT-15) [µM] | GI50 (NCI-H226) | GI50 (KM12) | GI50 (SNB-75) | GI50 (IGROV-1) | GI50 (SK-MEL-5) | GI50 (HCT-116) | GI50 (TK-10) | GI50 (SK-MEL-28) | GI50 (NCI-H23) | GI50 (BT-549)
OC1C2[C@@H](O)CCCN2C[C@@H](O)[C@H]1O (stereo not given in full) | > 100 µM (inactive) | > 100 µM (inactive) | > 100 µM (inactive) | > 100 µM (inactive) | > 100 µM (inactive) | > 100 µM (inactive) | > 100 µM (inactive) | > 100 µM (inactive) | > 100 µM (inactive) | > 100 | > 100 µM (inactive) | > 100 µM (inactive) | > 100 µM (inactive) | > 100 µM (inactive) | > 100 µM (inactive) | > 100 µM (inactive) | > 100 µM (inactive) | > 100 µM (inactive) | > 100 µM (inactive) | > 100 µM (inactive)
Cc1nc2c(o1)C(=O)c1ccccc1/C2=N/c1ccc(N2CCOCC2)cc1 | 3.86 µM (inactive) | 4.48 µM (inactive) | 2.49 µM (inactive) | 4.57 µM (inactive) | 1.8 µM (inactive) | 22.6 µM (inactive) | 3.38 µM (inactive) | 3.01 µM (inactive) | 2.08 µM (inactive) | 3.66 | 20.5 µM (inactive) | 16 µM (inactive) | 2.46 µM (inactive) | 8.71 µM (inactive) | 1.79 µM (inactive) | 3.35 µM (inactive) | 48 µM (inactive) | 3.15 µM (inactive) | 2.39 µM (inactive) | 2.12 µM (inactive)
N=C(N)NC(=N)Nc1ccc(S(N)(=O)=O)cc1 | > 100 µM (inactive) | > 100 µM (inactive) | > 100 µM (inactive) | > 100 µM (inactive) | > 100 µM (inactive) | > 100 µM (inactive) | > 100 µM (inactive) | > 100 µM (inactive) | > 100 µM (inactive) | > 100 | > 100 µM (inactive) | > 100 µM (inactive) | > 100 µM (inactive) | > 100 µM (inactive) | > 100 µM (inactive) | > 100 µM (inactive) | > 100 µM (inactive) | > 100 µM (inactive) | > 100 µM (inactive) | > 100 µM (inactive)
COc1ccc2nc3cc([N+](=O)[O-])ccc3c(NNc3ccccc3)c2c1 | 14.8 µM (inactive) | 30.8 µM (inactive) | 26.8 µM (inactive) | 23.2 µM (inactive) | 27.5 µM (inactive) | 18.4 µM (inactive) | 17.5 µM (inactive) | 26.9 µM (inactive) | 35.4 µM (inactive) | 22.6 | 0.596 µM (active) | 12.4 µM (inactive) | 49.1 µM (inactive) | 2.93 µM (inactive) | 16.7 µM (inactive) | 11.4 µM (inactive) | 2.58 µM (inactive) | 77.6 µM (inactive) | 34.7 µM (inactive) | 28.5 µM (inactive)
CCOC(=O)c1ccc(-c2cccs2)[nH]1 | 54.7 µM (inactive) | > 92 µM (inactive) | > 100 µM (inactive) | > 81.3 µM (inactive) | 63.5 µM (inactive) | > 100 µM (inactive) | > 70.8 µM (inactive) | 31.6 µM (inactive) | 72.6 µM (inactive) | 26.9 | > 100 µM (inactive) | > 100 µM (inactive) | > 100 µM (inactive) | 83.2 µM (inactive) | 30.8 µM (inactive) | 68.5 µM (inactive) | > 65.3 µM (inactive) | > 80.5 µM (inactive) | 67.5 µM (inactive) | > 63.1 µM (inactive)
C=C1C(=O)O[C@@H]2C[C@@H]3[C@]4(CC[C@]5(C)[C@@H]([C@H](C)CC/C=C(\C)C=O)CC[C@@]35C)C[C@]4(CCC(=O)OC)[C@H]12 | 0.993 µM (active) | 1.72 µM (inactive) | 2 µM (inactive) | 0.222 µM (active) | 1.36 µM (inactive) | 1.71 µM (inactive) | 0.295 µM (active) | 1.9 µM (inactive) | 1.9 µM (inactive) | 1.78 | 3.4 µM (inactive) | 1.86 µM (inactive) | 2.4 µM (inactive) | 2.13 µM (inactive) | 0.83 µM (active) | 0.771 µM (active) | 2.46 µM (inactive) | 2 µM (inactive) | 1.84 µM (inactive) | 2.03 µM (inactive)
